Reference: patent US8063079B2, “Cyclopropyl compounds” (Eli Lilly and Company, priority 2008, dated 2011)
Values joined by “and” are separate entries in the source; they are usually repeats but may differ in a detail not shown here. Equal values may be shown once.

Experiments:
human islet GK isoform = target: T1, human islet GK isoform (Homo sapiens, UniProt P35557); test: Glucokinase Assay; assay type: biochemical
T1 construct: (His)6; made in house; host or cells: E. coli
T1 sequence (P35557 1-465): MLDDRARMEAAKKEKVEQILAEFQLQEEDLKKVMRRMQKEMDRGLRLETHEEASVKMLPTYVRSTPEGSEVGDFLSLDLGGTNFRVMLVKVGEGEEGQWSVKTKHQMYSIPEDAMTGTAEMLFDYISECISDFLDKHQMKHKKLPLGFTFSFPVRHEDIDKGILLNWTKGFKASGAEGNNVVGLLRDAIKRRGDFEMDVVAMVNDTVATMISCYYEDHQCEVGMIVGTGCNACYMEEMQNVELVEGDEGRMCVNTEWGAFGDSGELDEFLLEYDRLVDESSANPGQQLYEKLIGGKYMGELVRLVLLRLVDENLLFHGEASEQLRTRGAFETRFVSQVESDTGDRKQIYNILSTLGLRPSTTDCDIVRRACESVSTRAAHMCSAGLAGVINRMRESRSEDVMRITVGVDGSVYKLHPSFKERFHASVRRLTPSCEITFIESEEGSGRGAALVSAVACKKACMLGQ
Experimental: The human islet GK isoform is expressed in E. coli as (His)6-tagged fusion protein and purified with metal chelate affinity chromatography, see e.g. Tiedge et al., Biochem. Biophys. Acta 1337, 175-190, 1997. After purification the enzyme is stored in aliquots at concentration 0.8 mg/ml in 25 mM sodium phosphate, 150 mM sodium chloride, 100 mM imidazole, 1 mM dithiothreitol, 50% glycerol at −80° C. The assay is performed in flat bottom 96-well plates in a final incubation volume of 100 μL. The incubation mixture consists of 25 mM 4-(2-hydroxyethyl)-1-piperazineethanesulfonic acid (HEPES) (pH7.4), 50 mM potassiumchloride, 2.5 mM magnesiumchloride, 2 mM dithiothreitol, 4 U/ml glucose-6-phosphate dehydrogenase from Leuconostoc mesenteroides, 5 mM ATP, 1 mM NAD and a set concentration of glucose. Test compounds are dissolved in dimethylsulfoxide and then added to the reaction mixture giving the final dimethylsulfoxide concentration of 10%. The reaction is initiated by addition of 20 μL GK and run for 20 min at 37° C. The amount of formed NADH is measured as an increase in absorbance at 340 nm using a microplate reader. Absorbance values are used for EC50 calculations.

[1] = tested on: Rat insulinoma INS-1E cells; test: Glycolysis Assay; assay type: cell-based; settings: INS1-E cells, 8 mM glucose, n=4, read-out: mean EC50 of stimulation of glucose metabolism
Experimental: Rat insulinoma INS-1E cells are maintained at 37° C., 5% CO2, 95% humidity in 1640 medium supplemented with 11 mM glucose, 5% Fetal Bovine Serum, 50 μM 2-Mercaptoethanol, 1 mM pyruvate, 10 mM HEPES and antibiotics. Prior to assay, cells are trypsinized, pelleted by centrifugation and seeded into 96-well tissue culture assay plates at the density of 30,000 cells/well. Cells are allowed to attach and incubated for 48 hours at 37° C., 5% CO2. On the assay day, cells are washed with and incubated in 200 μL Earle's Balanced Salt Solution (EBSS) buffer supplemented with 0.1% Bovine Serum Albumin (BSA). After 30 minutes incubation, the buffer is removed and 100 μL EBSS buffer containing 0.1% BSA, 8 mM glucose and the compound is added to cells. Immediately after, 20 μL of CellTiter 96® AQueous One Solution Reagent is added to cells and cells are incubated at 37° C. for an additional hour. At the end of incubation absorbance at 490 nm is read. Absorbance values are used for EC50 calculations.

[2] = tested on: plasma glucose in male Wistar rats; test: Oral Glucose Tolerance Test (OGTT); assay type: in vivo, rat
Experimental: Male Wistar rats at a weight of 225-250 g, are kept on regular diet and with normal light cycle and conditions. For the study, rats are fasted overnight before their exact weights are measured, and are randomized into groups of similar weights (n=4 per group). The compound is suspended in a 1:1 mixture of solutol/ethanol in a bath sonicator (10% of total volume). The obtained suspension is then diluted with 9 volumes of 10% aqueous solutol solution, and the compound is dosed orally at 1, 3, 6, 10, 20, and 30 mg/kg orally. Rats are given a 2 g/kg oral glucose bolus 2 hours after compound administration. Blood is collected via tail bleed at 0, 15, 30, 60, 90 and 120 minutes post glucose administration. Collected blood is placed into ethylenediaminetetraacetic acid (EDTA) tubes at volume of 400 μL per sample, and the samples are kept on ice. Plasma is isolated and stored at −20° C. until samples are analyzed for glucose and compound exposure. Area under the plasma glucose curve (glucose AUC) is calculated for each group and the percentage decrease in the glucose AUC versus the control group is used as a measure of efficacy of the compound to decrease plasma glucose.

[3] = Blood Brain Barrier Permeability; assay type: in vivo, mouse; settings: male CF-1 mice, IV bolus 2.17 μmole/kg, five minutes post dose
Experimental: A stock compound solution is prepared in dimethylsulfoxide at 10 mM. A dose solution is then prepared at 1 mM by diluting 100 μL of the stock with 900 μL of propylene glycol. The dose is administered as an IV bolus (2.2 mL/kg) via the tail vein into six male CF-1 mice (approximately 23 g) for a target dose of 2.17 μmole/kg. Mice are euthanized using both CO2 and cervical dislocation. Three mice are sacrificed 5 minutes post dose and three 60 minutes post dose. Blood is collected from each animal via cardiac puncture, and plasma is prepared using sodium EDTA, transferred into polypropylene sample tubes and immediately frozen using dry ice. […]
MS/MS is effected using a Sciex API 4000 triple quadrupole mass spectrometer equipped with a turbo ion spray source. […] Column effluent is diverted to waste from 0-2.8 minutes and then directed into the mass spectrometer from 2.8-4.0 minutes MS/MS transitions monitored are 560/84. Quantitation of compound in test samples is achieved by comparing peak area values to a quadratic equation weighted 1/x^2 derived from the nominal concentrations of the calibration standards and their respective peak areas. Upper and Lower Limits of Quantitation are determined by the back calculated recoveries of calibration standards that exceeded +/−20% of theory. […]

EC50 (human islet GK isoform; 10 mM glucose, n=5, read-out: EC50 of GK activation): 42 ± 42 nM | EC50 [1]: 579 ± 139 nM | mean total brain level [3]: 0.539 nmol/g | Kp at 5 min ([3]; mouse, brain/plasma, read-out: mean brain/plasma ratio): 0.17
Compound: O=C(Nc1ncc(SCCN2CCCC2)s1)[C@]1(c2ccc(S(=O)(=O)C3CC3)cc2)C[C@H]1C1CCCCC1 [Example 1, (1R,2S)-2-Cyclohexyl-1-(4-cyclopropanesulfonyl-phenyl)-cyclopropanecarboxylic acid [5-(2-pyrrolidin-1-yl-ethylsulfanyl)-thiazol-2-yl]-amide]
enzyme activity at lower glucose concentrations (human islet GK isoform; lower glucose concentrations): increased the enzyme activity in a concentration dependent manner | maximal lowering of glucose AUC versus the untreated control group ([2]; 30 mg/kg oral, 2 g/kg oral glucose bolus 2 hours after compound): 42% | average compound concentration in plasma at which a 20% glucose AUC decrease occurs ([2]; interpolation of the data): 99 ng/ml and 179 nM | compound dose corresponding to a 20% glucose AUC decrease ([2]; interpolation of the data, oral): 6.9 mg/kg | effect on plasma glucose ([2]; oral 1-30 mg/kg, fasted and postprandial glucose levels): decreases plasma glucose in a dose-dependent manner
